Experimental data: patent US20220274947A1, “NOVEL HETEROARYL-TRIAZOLE COMPOUNDS AS PESTICIDES” (Bayer Aktiengesellschaft, priority 2019, published 2022)

What was measured:
Type in all cases: in vivo
Diabrotica balteata = Diabrotica balteata spray test; settings: 168 h, wheat seeds, larvae, after 7 days, read-out: activity (efficacy: 100% means all seedlings have grown up like in the untreated, uninfected control); for pest or weed control at 32 µg/disc, 100 g/ha: application rate 100 g/ha (=32 μg/well); for pest or weed control at 160 µg/disc, 500 g/ha: application rate 500 g/ha (=160 μg/well)
Summary of the method: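 Wheat seedlings, germinated 1 day on agar, were sprayed with compound in acetone/DMF diluted in water containing emulsifier, then infested with 10-20 Diabrotica balteata larvae. After 7 days efficacy in % was scored: 100% means seedlings grew like the untreated, uninfected control; 0% means none grew.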

Spodoptera frugiperda = Spodoptera frugiperda spray test; settings: in Zea mays, 168 h, read-out: activity (mortality)
Summary of the method: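 Maize leaf sections were sprayed with compound formulated in acetone/DMF and diluted in water containing 1000 ppm emulsifier. Dried leaves were infested with fall armyworm larvae, and percent mortality was scored after 7 days.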

Rhipicephalus microplus [1] = test: Rhipicephalus (Boophilus) microplus injection test (BOOPMI Inj); settings: 168 h, injection into adult engorged female ticks, egg deposition after 7 days, read-out: activity (efficacy: 100% means all eggs are infertile); for pest or weed control at 0.004 mg: application rate 4 μg/tick; for pest or weed control at 0.02 mg: application rate 20 μg/tick
Summary of the method: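 Five engorged adult female R. microplus ticks injected into the abdomen with 1 μL of compound diluted in DMSO, then kept in a climate chamber. Fertile egg deposition checked after 7 days; eggs without visible fertility held until hatching at about 42 days. Efficacy: 100% = all eggs infertile, 0% = all fertile.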

Rhipicephalus microplus [2] = test: Rhipicephalus (Boophilus) microplus in-vitro contact test, larval cattle tick, strain Parkhurst (BOOPMI Cont); settings: application rate 5 μg/cm^2 (=500 g/ha), tick larvae, after 48 hours, read-out: activity (efficacy: 100% means all larvae are dead or moribund)
Summary of the method: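 Acetone solutions dried onto glass tube walls (900 ppm giving 5 μg/cm^2); 20-50 pyrethroid-resistant Parkhurst larvae added per tube and held 48 h at 27° C., 85% relative humidity. Efficacy scored by negative geotaxis as % dead or moribund larvae.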

Nezara viridula = Nezara viridula spray test; settings: in Hordeum vulgare, 96 h, barley plants, larvae, after 4 days; for mortality at 500 g/ha: application rate 500 g/ha; for mortality at 100 g/ha: application rate 100 g/ha
Description: Nezara viridula—Spray Test Solvent: 78.0 parts by weight of acetone • • 1.5 parts by weight of dimethylformamide Emulsifier: alkylarylpolyglycol ether
To produce a suitable preparation of active compound, 1 part by weight of active compound is mixed with the stated amount of solvent, and the concentrate is diluted with water, containing an emulsifier concentration of 1000 ppm, to the desired concentration. Further test concentrations are prepared by dilution with emulsifier containing water.
Barley plants (Hordeum vulgare) infested with larvae of the southern green stink bug (Nezara viridula) are sprayed with a test solution containing the desired concentration of the active ingredient.
After 4 days mortality in % is determined. 100% means all the stink bugs have been killed; 0% means none of the stink bugs have been killed.

[3] = system: Musca domestica strain WHO—N; test: Musca domestica test (MUSCDO surface treatment & contact assay); settings: exposure 30 minutes, 24 hours after contact, read-out: efficacy (mortality); for mortality at 20 mg/m2: surface concentration 20 mg/m^2, glazed tile; for mortality at 4 mg/m2: surface concentration 4 mg/m^2, glazed tile
Summary of the method: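 Compound dissolved in acetone (2 mg/ml) with 2000 ppm rapeseed oil methyl ester and pipetted onto glazed tile; after acetone evaporation, adult flies exposed to dried surface for 30 minutes. Mortality (%) scored 24 hours after contact.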

Ctenocephalides felis [4] = test: Ctenocephalides felis in-vitro contact test, adult cat flea (CTECFE Cont); settings: application rate 5 μg/cm^2 (=500 g/ha), adult cat fleas, after 48 hours, read-out: activity (efficacy: 100% means all fleas are dead or moribund)
Description: Ctenocephalides felis—In-Vitro Contact Tests Adult Cat Flea (CTECFE Cont)
9 mg compound is solved in 1 mL acetone and diluted with acetone to the desired concentration. 250 μL of the test solution is filled in 25 mL glass test tubes and homogeneously distributed on the inner walls by rotation and tilting on a shaking device (2 h at 30 rpm). With a compound concentration of 900 ppm, an inner surface of 44.7 cm^2 and a homogeneous distribution, a dose of 5 μg/cm^2 is achieved.
After the solvent has evaporated, each test tube is filled with 5-10 adult cat fleas (Ctenocephalides felis), closed with a perforated lid and incubated in a lying position at room temperature and relative humidity. After 48 hours efficacy is determined. The fleas are patted on the ground of the tubes and are incubated on a heating plate at 45-50° C. for at most 5 minutes. Immotile or uncoordinated moving fleas, which are not able to escape the heat by climbing upwards, are marked as dead or moribund.
An efficacy of 100% means all fleas are dead or moribund; 0% means no fleas are dead or moribund.

Rhipicephalus sanguineus = Rhipicephalus sanguineus in-vitro contact test, adult brown dog ticks (RHIPSA Cont); settings: 48 h, after 48 hours, read-out: activity (efficacy: 100% means all ticks are dead or moribund); for pest or weed control at 5 µg/cm2, 500 g/ha: application rate 5 μg/cm^2 (=500 g/ha); for pest or weed control at 1 µg/cm2, 100 g/ha: application rate 1 μg/cm^2 (=100 g/ha)
Summary of the method: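 Mortality of adult R. sanguineus was judged 48 h after contact with acetone-applied residues on glass tube walls. Ticks that stayed immotile or moved without coordination when heated to 45–50 °C (max 5 min) counted as dead or moribund.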

Myzus persicae = Myzus persicae oral test; settings: 120 h, read-out: activity (mortality)
Summary of the method: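 Percent mortality was recorded at day 5, where 0% means no aphids killed. Compound prepared from an acetone concentrate diluted in water and combined with IPL41 medium containing sugar was offered to mixed-stage green peach aphids, which sucked it through a parafilm seal.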

Ctenocephalides felis [5] = test: Ctenocephalides felis oral test (CTECFE Oral); settings: 48 h, read-out: activity (mortality)
Summary of the method: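 About 20 unfed adult cat fleas fed through parafilm on cattle blood containing compound (DMSO concentrate diluted in blood to the desired concentration). Blood held at 37 °C, fleas at room temperature. Mortality (%) scored after 2 days.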

[6] = system: Aedes aegypti strain MONHEIM; test: Aedes aegypti test (AEDSAE surface treatment & contact assay); settings: exposure 30 minutes, 24 hours after contact, read-out: efficacy (mortality); for mortality at 4 mg/m2: surface concentration 4 mg/m^2, glazed tile; for mortality at 20 mg/m2: surface concentration 20 mg/m^2, glazed tile
Summary of the method: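 Compound dissolved in acetone (2 mg/ml) with 2000 ppm rapeseed oil methyl ester, pipetted onto glazed tile and dried. Adult mosquitoes exposed on the surface for 30 min; percent mortality scored 24 h after contact.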

Structure (SMILES) | pest or weed control at 32 µg/disc, 100 g/ha (Diabrotica balteata) | pest or weed control at 160 µg/disc, 500 g/ha (Diabrotica balteata) | mortality at 100 g/ha (Spodoptera frugiperda) | mortality at 500 g/ha (Spodoptera frugiperda) | pest or weed control at 0.004 mg (Rhipicephalus microplus [1]) | pest or weed control at 0.02 mg (Rhipicephalus microplus [1]) | pest or weed control at 5 µg/cm2 (Rhipicephalus microplus [2]) | mortality at 500 g/ha (Nezara viridula) | mortality at 20 mg/m2 [3] | pest or weed control at 5 µg/cm2 (Ctenocephalides felis [4]) | pest or weed control at 5 µg/cm2, 500 g/ha (Rhipicephalus sanguineus) | mortality at 4 ppm (Myzus persicae) | mortality at 100 ppm (Ctenocephalides felis [5]) | mortality at 4 mg/m2 [6] | pest or weed control at 1 µg/cm2, 100 g/ha (Rhipicephalus sanguineus) | mortality at 100 g/ha (Nezara viridula) | mortality at 20 mg/m2 [6] | mortality at 4 mg/m2 [3] | mortality at 0.8 ppm (Myzus persicae)
C[C@H](NC(=O)c1cc(C(F)(F)F)cc(C(F)(F)F)c1)c1nc(C2CC2)nn1-c1ccc(C#N)cn1 [I-4] | 100% | 100% | 100% | 100% | 100% | 100% | 100% | 90% | 80 to 100% |  |  |  |  |  |  |  |  |  | 
C[C@H](NC(=O)c1cc(Cl)cc(C(F)(F)F)c1)c1nc(C2CC2)nn1-c1ccc(C#N)cn1 [I-6, 3-chloro-N-{(1S)-1-[1-(5-cyanopyridin-2-yl)-3-cyclopropyl-1H-1,2,4-triazol-5-yl]ethyl}-5-(trifluoromethyl)benzamide] | 100% | 100% | 100% | 100% | 100% | 100% | 100% | 100% | 80 to 100% |  |  |  |  |  |  |  |  |  | 
COc1nc([C@H](C)NC(=O)c2cc(Cl)cc(Cl)c2)n(-c2ccc(C#N)cn2)n1 [I-15] | 100% | 100% | 100% | 100% | 100% | 100% | 100% |  |  | 80% | 80% | 100% | 100% | 80 to 100% |  |  |  |  | 
C[C@H](NC(=O)c1cc(Cl)cc(C(F)(F)F)c1)c1nc(C(C)(C)C)nn1-c1ccc(C#N)cn1 [I-38] | 100% |  | 83% |  | 100% | 100% | 100% |  | 80 to 100% |  | 80% |  |  |  | 100% | 100% |  |  | 
C[C@H](NC(=O)c1cc(Cl)cc(C(F)F)c1)c1nc(C2CC2)nn1-c1ccc(C#N)cn1 [I-42] | 100% |  | 100% |  | 100% |  | 100% |  | 80 to 100% |  |  |  | 100% | 80 to 100% |  | 100% | 80 to 100% |  | 
C[C@H](NC(=O)c1cc(Cl)cc(SC(F)F)c1)c1nc(C2CC2)nn1-c1ccc(C#N)cn1 [I-46] | 100% |  | 100% |  | 100% |  | 100% |  | 80 to 100% |  |  |  | 100% |  |  | 100% |  |  | 
C[C@H](NC(=O)c1cc(OC(F)F)cc(OC(F)F)c1)c1nc(C2CC2)nn1-c1ccc(C#N)cn1 [I-47] | 80% |  | 100% |  | 100% |  | 100% |  | 80 to 100% |  | 80% |  | 90% | 80 to 100% | 100% | 100% |  | 80 to 100% | 
C[C@H](NC(=O)c1cc(I)cc(C(F)(F)F)c1)c1ncnn1-c1ccc(C#N)cn1 [II-46] | 100% | 100% | 100% | 100% | 100% | 100% | 100% | 100% | 80 to 100% |  | 100% |  | 100% | 80 to 100% | 100% |  | 80 to 100% | 80 to 100% | 
C[C@H](NC(=O)c1cc(Cl)cc(C(F)(F)F)c1)c1ncnn1-c1ccc(C(=O)N(C)CC(F)(F)F)cn1 [II-69] | 80% |  | 83% | 100% | 100% | 100% | 100% |  |  | 90% | 100% | 100% | 100% |  | 100% |  |  |  | 
Cc1nc([C@H](C)NC(=O)c2cc(Cl)cc(C(F)(F)C(F)(F)F)c2)n(-c2ccc(C#N)cn2)n1 [II-75] | 100% |  | 100% |  | 100% | 100% | 100% |  |  | 90% | 100% | 100% | 100% |  | 100% |  |  |  | 
C[C@H](NC(=O)c1cc(C(F)(F)F)cc(C(F)(F)F)c1)c1ncnn1-c1cc(C(=O)N(C)C)ccn1 [II-86] | 100% |  | 100% |  |  |  | 100% |  |  | 100% | 80% | 100% | 100% |  | 100% |  |  |  | 100%
C[C@H](NC(=O)c1cc(Br)cc(OC(F)(F)F)c1)c1ncnn1-c1cc(C#N)ccn1 [II-107] | 100% |  | 100% |  | 100% |  | 100% |  |  | 100% | 100% | 100% | 100% |  | 100% |  |  |  | 
